Format in all cases: binding
One test addresses T1, MAP1LC3B (Homo sapiens, UniProt Q9GZQ8).
T1 construct: GST (cleaved yes); made in house; host or cells: Escherichia coli BL21-Gold(DE3)
The test is described as follows: FP displacement assay, MAP1LC3B. Conditions: read-out: KD values ± SEM. The method, then: (§1) FP experiments were performed as described previously (Kliche et al, [2021]). Shortly, in order to monitor the binding event, FITC‐labelled peptides were used (excitation 495 nm, emission: 535 nm) and the FP signal was recorded in mP on a SpectraMax iD5 Multi‐Mode Microplate Reader (Molecular Devices) by measuring the emitted light in two angels. The measurements were performed at room temperature and prepared in nonbinding black half area 96‐well microplates (Corning®; 50 μl/well). For measuring direct binding, that is saturation curves, a 1:1 dilution series of protein domain (25 μl/well) was generated in 50 mM sodium phosphate buffer pH 7.4 and the measurement performed with 5 nM FITC‐labelled peptide (25 μl/well). The buffer‐corrected values were subsequently plotted with PRISM and fitted to the quadratic equation (Gianni et al, [2005]).
(§2) The 1:1 dilution series in this experiment was performed with the unlabelled peptide in 50 mM sodium phosphate buffer pH 7.4, so that each well‐contained unlabelled peptide (25 μl) at a certain concentration and pre‐formed complex (25 μl). The KD values of this indirectly monitored binding event were calculated as described previously (Nikolovska‐Coleska et al, [2004]). All measurements were at least in technical triplicates as well as biological duplicates when indicated. An amplitude shift between repeat measurements in the displacement experiments was occasionally observed due to variations in the protein preparations. If that was the case, the “active” protein concentration was back‐calculated according to the quadratic equation from the saturation curves performed in parallel. By comparing the active protein concentrations in the complex between different protein preparations, the amplitude was normalised.

The next test deals with T2, GABARAPL2 (Homo sapiens, UniProt P60520).
T2 construct: GABARAPL2_ATG8__P60520_2_115; GST (cleaved yes); made in house; host or cells: Escherichia coli BL21-Gold(DE3)
T2 sequence (P60520 2-115): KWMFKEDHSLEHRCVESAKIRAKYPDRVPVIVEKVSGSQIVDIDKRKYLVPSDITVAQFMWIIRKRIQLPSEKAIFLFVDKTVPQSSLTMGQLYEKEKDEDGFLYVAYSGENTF
Put plainly: FP displacement assay, GABARAPL2. The method, then:
as §1, §2

The target in a further test is T3, MAP1LC3B ATG8 (Homo sapiens, UniProt Q9GZQ8).
T3 construct: MAP1LC3B ATG8; made in house; host or cells: Escherichia coli BL21-Gold(DE3)
The test is described as follows: ITC, MAP1LC3B ATG8. Conditions: for Kd: ITC (iTC200), 50 mM sodium phosphate pH 7.4, 1 mM DTT, average of the runs, at least technical triplicates. Background: Isothermal titration calorimetry measures the heat released or taken up as one component is titrated into another.

Another test addresses T4, KPNA4 ARM minor (Homo sapiens, UniProt O00629).
T4 construct: 60-487; GST (cleaved yes); made in house; host or cells: Escherichia coli BL21-Gold(DE3)
Put plainly: FP displacement assay, KPNA4 ARM minor pocket. The settings on record: for Kd: minor pocket probe FITC-NCOR2 5 nM, 50 mM sodium phosphate pH 7.4, room temperature, at least three technical replicates, read-out: KD values ± SEM; for IC50: Fig 3E, KPNA4 ARM minor, technical triplicates, read-out: IC50 values of displacement curves, with SEM. The method, then:
as §1, §2

A further test has as its target T5, KPNA4 ARM Major (Homo sapiens, UniProt O00629).
T5 construct: 60-487; GST (cleaved yes); made in house; host or cells: Escherichia coli BL21-Gold(DE3)
Put plainly: FP displacement assay, KPNA4 ARM major pocket. Conditions: for Kd: major pocket probe FITC-MYC 5 nM, 50 mM sodium phosphate pH 7.4, room temperature, at least three technical replicates, read-out: KD values ± SEM; for IC50: Fig 3E, KPNA4 ARM major, technical triplicates, read-out: IC50 values of displacement curves, with SEM. The method, then: as §1, §2

Setting [1] is: ITC single run: date 200402, injection 1.
Setting [2] is: ITC single run: date 200402, injection 2.
The mark [3] stands for this setting: ITC single run: date 200402, injection 3.

Like-named read-outs stand apart in the source and are kept apart here. Non-standard residues stand in square brackets, D forms with d. Residues, ends and D or L forms follow the SMILES beside them. pT = C[C@@H](OP(=O)(O)O)[C@H](N)C(=O)O; pS = N[C@@H](COP(=O)(O)O)C(=O)O

Experimental findings from PMC10333884, “Large‐scale phosphomimetic screening identifies phospho‐modulated motif‐based protein interactions” (Molecular Systems Biology, 2023) are described below.

T5 sequence (O00629 60-487): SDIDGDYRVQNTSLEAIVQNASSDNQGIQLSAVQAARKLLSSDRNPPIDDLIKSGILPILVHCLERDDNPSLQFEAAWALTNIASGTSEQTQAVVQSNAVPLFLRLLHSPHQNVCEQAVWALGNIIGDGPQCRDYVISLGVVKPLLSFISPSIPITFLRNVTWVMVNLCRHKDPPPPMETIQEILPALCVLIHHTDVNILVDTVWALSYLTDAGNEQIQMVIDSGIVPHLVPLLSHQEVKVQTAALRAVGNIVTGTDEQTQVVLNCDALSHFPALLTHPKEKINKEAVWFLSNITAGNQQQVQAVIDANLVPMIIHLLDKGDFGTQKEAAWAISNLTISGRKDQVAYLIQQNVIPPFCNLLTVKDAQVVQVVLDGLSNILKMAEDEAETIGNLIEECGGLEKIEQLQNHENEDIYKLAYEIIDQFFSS
T4 sequence (O00629 60-487): as above

As for `CC(=O)N[C@@H](CCC(N)=O)C(=O)N[C@@H](CC(N)=O)C(=O)N[C@@H](CC(C)C)C(=O)N[C@@H](CO)C(=O)N[C@@H](CCCNC(=N)N)C(=O)N[C@@H](COP(=O)(O)O)C(=O)N[C@@H](Cc1c[nH]c2ccccc12)C(=O)N[C@@H](Cc1c[nH]cn1)C(=O)N[C@@H](CC(=O)O)C(=O)N[C@H](C(=O)N[C@@H](CCC(N)=O)C(=O)N[C@H](C(=O)N[C@@H](CO)C(=O)N[C@@H](CO)C(=O)N[C@@H](C)C(=O)N[C@@H](Cc1ccc(O)cc1)C(N)=O)C(C)C)C(C)C` [TPD52L2_91–106 pS], the Kd at MAP1LC3B amounted to 61 ± 2 µM.

`CC(=O)N[C@@H](C)C(=O)N[C@@H](CC(N)=O)C(=O)N[C@@H](CO)C(=O)N[C@@H](Cc1c[nH]c2ccccc12)C(=O)N[C@@H](CCC(N)=O)C(=O)N[C@@H](CC(C)C)C(=O)N[C@H](C(=O)N[C@@H](CCC(=O)O)C(=O)N[C@H](C(=O)N1CCC[C@H]1C(=O)N[C@@H](CCC(=O)O)C(=O)N[C@@H](CCCCN)C(=O)N[C@@H](CCCNC(=N)N)C(=O)N[C@@H](CCCCN)C(=O)N[C@@H](CCC(=O)O)C(=O)N[C@@H](CCC(=O)O)C(N)=O)[C@@H](C)O)C(C)C` [DLGAP4_907–922 wt] (Ac-ANSWQLVETPEKRKEE-NH2): on GABARAPL2 (read-out: KD values ± SEM), the Kd was 174 ± 22 µM.

`CC(=O)N[C@@H](CC(C)C)C(=O)N[C@@H](CCC(=O)O)C(=O)N[C@@H](CC(=O)O)C(=O)N[C@@H](CC(=O)O)C(=O)N[C@@H](CCC(=O)O)C(=O)N[C@@H](CCC(N)=O)C(=O)N[C@@H](Cc1ccccc1)C(=O)N[C@H](C(=O)N[C@@H](CO)C(=O)N[C@@H](CC(C)C)C(=O)N[C@@H](Cc1ccc(O)cc1)C(=O)NCC(=O)N[C@H](C(=O)N[C@@H](CCC(=O)O)C(=O)N[C@@H](CCC(=O)O)C(=O)N[C@@H](Cc1ccc(O)cc1)C(N)=O)[C@@H](C)O)C(C)C` [TBK1_164–179 wt]: the Kd came to 10.5 ± 0.1 µM on MAP1LC3B, 8 µM at MAP1LC3B ATG8 and 19 ± 4 µM on GABARAPL2 (read-out: KD values ± SEM). In addition, the Ka on MAP1LC3B ATG8 (ITC single run: date 2101 new, injection 1) turned out to be 84300; at MAP1LC3B ATG8 (setting [1]), 143000; on MAP1LC3B ATG8 (setting [2]) it was 170000; on MAP1LC3B ATG8 (setting [3]), 144000.

Consider `CC(=O)N[C@@H](CC(=O)O)C(=O)N[C@H](C(=O)N[C@@H](CCC(=O)O)C(=O)N[C@@H](Cc1c[nH]cn1)C(=O)NCC(=O)NCC(=O)N[C@@H](CCCCN)C(=O)N[C@@H](CCCNC(=N)N)C(=O)N[C@@H](COP(=O)(O)O)C(=O)N[C@@H](CCCNC(=N)N)C(=O)N[C@@H](CC(C)C)C(=O)N[C@H](C(=O)N1CCC[C@H]1C(=O)N[C@H](C(=O)N[C@@H](CO)C(=O)N[C@@H](Cc1ccc(O)cc1)C(N)=O)C(C)C)[C@@H](C)O)C(C)C` [SQSTM1_258–272 pS] (Ac-DVEHGGKR[pS]RLTPVSY-NH2), for which the figures for the Kd at KPNA4 ARM minor and at KPNA4 ARM Major were 248 ± 3 µM and 50 ± 7 µM, respectively.

`CC(=O)N[C@@H](CC(C)C)C(=O)N[C@@H](CCC(=O)O)C(=O)N[C@@H](CC(=O)O)C(=O)N[C@@H](CC(=O)O)C(=O)N[C@@H](CCC(=O)O)C(=O)N[C@@H](CCC(N)=O)C(=O)N[C@@H](Cc1ccccc1)C(=O)N[C@H](C(=O)N[C@@H](COP(=O)(O)O)C(=O)N[C@@H](CC(C)C)C(=O)N[C@@H](Cc1ccc(O)cc1)C(=O)NCC(=O)N[C@H](C(=O)N[C@@H](CCC(=O)O)C(=O)N[C@@H](CCC(=O)O)C(=O)N[C@@H](Cc1ccc(O)cc1)C(N)=O)[C@@H](C)O)C(C)C` [TBK1_164–179 pS]: the Kd at MAP1LC3B is 1.3 ± 0.3 µM; at MAP1LC3B ATG8, 2.67 µM; on GABARAPL2 (read-out: KD values ± SEM), 2.8 ± 0.6 µM. Further, the Ka at MAP1LC3B ATG8 (setting [1]) worked out at 270000; at MAP1LC3B ATG8 (setting [2]), 480000; on MAP1LC3B ATG8 (setting [3]), 520000.

For `CC(=O)N[C@@H](C)C(=O)N[C@@H](CC(N)=O)C(=O)N[C@@H](CO)C(=O)N[C@@H](Cc1c[nH]c2ccccc12)C(=O)N[C@@H](CCC(N)=O)C(=O)N[C@@H](CC(C)C)C(=O)N[C@H](C(=O)N[C@@H](CCC(=O)O)C(=O)N[C@H](C(=O)N1CCC[C@H]1C(=O)N[C@@H](CCC(=O)O)C(=O)N[C@@H](CCCCN)C(=O)N[C@@H](CCCNC(=N)N)C(=O)N[C@@H](CCCCN)C(=O)N[C@@H](CCC(=O)O)C(=O)N[C@@H](CCC(=O)O)C(N)=O)[C@@H](C)OP(=O)(O)O)C(C)C` [DLGAP4_907–922 pS] (Ac-ANSWQLVE[pT]PEKRKEE-NH2), the Kd at GABARAPL2 came to 150 ± 32 µM.

Consider `CC(=O)NCC(=O)N[C@@H](C)C(=O)N[C@@H](COP(=O)(O)O)C(=O)N1CCC[C@H]1C(=O)N[C@@H](C)C(=O)N[C@@H](CC(C)C)C(=O)N[C@@H](CCCCN)C(=O)N[C@@H](CCCNC(=N)N)C(=O)N[C@@H](CO)C(=O)N[C@@H](Cc1c[nH]cn1)C(=O)N[C@@H](CO)C(=O)N[C@@H](CC(=O)O)C(=O)N[C@@H](CO)C(=O)N[C@@H](Cc1ccc(O)cc1)C(N)=O` [CDC25A114–125 pS] (Ac-GA[pS]PALKRSHSDSY-NH2), for which the Kd stood at 2.8 ± 0.4 µM at KPNA4 ARM minor and 0.63 ± 0.04 µM on KPNA4 ARM Major.

As for `CC(=O)N[C@@H](CC(N)=O)C(=O)N[C@@H](Cc1ccc(O)cc1)C(=O)N[C@@H](C)C(=O)N1CCC[C@H]1C(=O)N1CCC[C@H]1C(=O)N[C@H](C(=O)N[C@@H](CCCCN)C(=O)N[C@@H](CCCNC(=N)N)C(=O)N[C@@H](CCC(=O)O)C(=O)N[C@@H](CCCNC(=N)N)C(=O)N[C@H](C(=O)N[C@@H](CO)C(=O)N[C@@H](CO)C(=O)N[C@@H](CC(C)C)C(=O)N[C@H](C(=O)N[C@@H](CCC(N)=O)C(N)=O)[C@@H](C)O)[C@@H](C)O)C(C)C` [RANBP3_114–129 wt] (Ac-NYAPPVKRERTSSLTQ-NH2), at KPNA4 ARM minor, the IC50 was 325 ± 34 µM and the Kd stood at 68 ± 4 µM. On KPNA4 ARM Major, the 50% inhibitory concentration (IC50) stood at 1.3 ± 0.2 µM and the Kd came out at 0.15 ± 0.01 µM.

Turning to `CC(=O)N[C@@H](CC(N)=O)C(=O)N[C@@H](Cc1ccc(O)cc1)C(=O)N[C@@H](C)C(=O)N1CCC[C@H]1C(=O)N1CCC[C@H]1C(=O)N[C@H](C(=O)N[C@@H](CCCCN)C(=O)N[C@@H](CCCNC(=N)N)C(=O)N[C@@H](CCC(=O)O)C(=O)N[C@@H](CCCNC(=N)N)C(=O)N[C@H](C(=O)N[C@@H](CO)C(=O)N[C@@H](CO)C(=O)N[C@@H](CC(C)C)C(=O)N[C@H](C(=O)N[C@@H](CCC(N)=O)C(N)=O)[C@@H](C)O)[C@@H](C)OP(=O)(O)O)C(C)C` [RANBP3_114–129 pS (p + 5)] (Ac-NYAPPVKRER[pT]SSLTQ-NH2), at KPNA4 ARM minor, the IC50 came out at 800 ± 75 µM and the Kd was 167 ± 9 µM. Also, at KPNA4 ARM Major, the IC50 was 10 ± 1 µM and the Kd came out at 1.13 ± 0.05 µM.

Take `CC(=O)N[C@@H](CCC(N)=O)C(=O)N[C@@H](CC(N)=O)C(=O)N[C@@H](CC(C)C)C(=O)N[C@@H](CO)C(=O)N[C@@H](CCCNC(=N)N)C(=O)N[C@@H](CO)C(=O)N[C@@H](Cc1c[nH]c2ccccc12)C(=O)N[C@@H](Cc1c[nH]cn1)C(=O)N[C@@H](CC(=O)O)C(=O)N[C@H](C(=O)N[C@@H](CCC(N)=O)C(=O)N[C@H](C(=O)N[C@@H](CO)C(=O)N[C@@H](CO)C(=O)N[C@@H](C)C(=O)N[C@@H](Cc1ccc(O)cc1)C(N)=O)C(C)C)C(C)C` [TPD52L2_91–106 wt]: the Kd at MAP1LC3B turned out to be 760 ± 150 µM.

`CC(=O)NCC(=O)N[C@@H](C)C(=O)N[C@@H](CO)C(=O)N1CCC[C@H]1C(=O)N[C@@H](C)C(=O)N[C@@H](CC(C)C)C(=O)N[C@@H](CCCCN)C(=O)N[C@@H](CCCNC(=N)N)C(=O)N[C@@H](CO)C(=O)N[C@@H](Cc1c[nH]cn1)C(=O)N[C@@H](CO)C(=O)N[C@@H](CC(=O)O)C(=O)N[C@@H](CO)C(=O)N[C@@H](Cc1ccc(O)cc1)C(N)=O` [CDC25A114–125 wt] (Ac-GASPALKRSHSDSY-NH2): the Kd was found to be 0.2 ± 0.004 µM at KPNA4 ARM minor and 8.8 ± 0.2 µM at KPNA4 ARM Major.

A word on the Kd: it is the concentration at which binding is half-saturated. The term IC50 denotes the concentration that gives 50% inhibition.
